Data reported in patent EP0085843A1, “Antimycosic agent” (BAYER AG, priority 1982, dated 1983).

Key:
Candida = test: Antifungal in-vivo activity (oral) in mouse candidosis; design: species or system Mäuse vom Typ SPF-CF1; key to Wirkung (Ueberlebende am 6.Tag p.i.): +++++: = sehr gute Wirkung = 90 % Ueberlebende am 6.Tag p.i.; ++++: = gute Wirkung = 80 % Ueberlebende am 6.Tag p.i.; +++: = Wirkung = 60 % Ueberlebende am 6.Tag p.i.; ++: = schwache Wirkung = 40 % Ueberlebende am 6.Tag p.i.; +: = Spur Wirkung = unter 40% " " " "; k.W.: = keine Wirkung; details: for Wirkung (Ueberlebende am 6.Tag p.i.): 50 - 100 mg/kg one hour before and seven hours after i.v. infection; for Wirkung compared with known compounds (A), (B), (C), (D): mouse candidosis
Protocol: Mäuse vom Typ SPF-CF1 wurden intravenös mit 1 - 2 x 10^6 logarithmisch wachsenden Candida-Zellen, die in physiologischer Kochsalzlösung suspendiert werden, infiziert. Eine Stunde vor und sieben Stunden nach der Infektion werden die Tiere mit jeweils 50 - 100 mg/kg Körpergewicht der Präparate oral behandelt.
Unbehandelte Tiere starben 3 bis 6 Tage post infektionem. Die Ueberlebensrate am 6.Tag post infektionem betrug bei unbehandelten Kontrolltieren etwa 5 %.

[1] = tested on: Trichophyton mentagrophytes; test: In-vivo activity (local) in experimental guinea pig trichophytosis; design: species or system Meerschweinchen; key to Wirkung (Infektionszeichen): +++++: sehr gute Wirkung = keine Infektionszeichen am 12.-15.Tag p.i.; ++++: gute Wirkung = geringe Rötung, vereinzelt Schuppen; +++: Wirkung = Rötung, Schuppung, ohne Haarausfall; ++: schwache Wirkung = Rötung, Schuppung, Haarausfall; +: Spur Wirkung = flächiger Haarausfall, entzündliche Hautreaktion; details: for Wirkung (Infektionszeichen): 1x daily from day 3 p.i., 15%-ige Lösung in Dimethylsulfoxid : Glycerin = 1 : 4; for Wirkung: trichophytosis model
[2] = tested on: Dermatophyten, Schimmelpilze, Hefen; test: Antifungal in-vitro activity, serial dilution test, overall statement; assay type: cell-based
Protocol: Versuchsbeschreibung: • Die in-vitro-Prüfungen wurden im Reihenverdünnungstest mit Keiminokula von durchschnittlich 5 x 10^4 Keimen/ml Substrat durchgeführt. Als Nährmedium dienten • a) für Dermatophyten und Schimmelpilze: Sabouraud's milieu d'epreuve • b) für Hefen: • Fleischextrakt-Traubenzucker-Bouillon.
Die Bebrütungstemperatur betrug 20°C, die Bebrütungsdauer lag bei 24 bis 96 Stunden bei Hefen und 96 Stunden bei Dermatophyten und Schimmelpilzen.

SMILES	Wirkung (Ueberlebende am 6.Tag p.i.) (Candida)	Wirkung compared with known compounds (A), (B), (C), (D) (Candida)	Wirkung (Infektionszeichen) [1]	Wirkung [1]	antimykotische Wirkung compared with known compounds (A), (B), (C), (D) [2]
Cc1ccc(OCC(O)(Cn2cncn2)C(C)(C)C)cc1 (centres unmarked) [(A), reference compound]	k.W.				
Cc1cc(Cl)ccc1OCC(O)(Cn1cncn1)C(C)(C)C (centres unmarked) [(C), reference compound]	k.W.				
COC(COc1ccc(Cl)cc1C)(Cn1cncn1)C(C)(C)C (centres unmarked) [Beispiel 1, 2-(4-Chlor-2-methyl-phenoxymethyl)-3,3-dimethyl-2-methoxy-1-(1,2,4-triazol-1-yl)-butan]	+++ (= Wirkung = 60 % Ueberlebende am 6.Tag p.i.)	bessere Wirkung	++++	gute Wirkung	bessere antimykotische Wirkung
COC(COc1ccc(Cl)cc1)(Cn1cncn1)C(C)(C)C (centres unmarked) [Beispiel 2]	++++ (= gute Wirkung = 80 % Ueberlebende am 6.Tag p.i.)	bessere Wirkung	++++	gute Wirkung	
COC(COc1ccc(Cl)cc1Cl)(Cn1cncn1)C(C)(C)C (centres unmarked) [Beispiel 3]	+++ (= Wirkung = 60 % Ueberlebende am 6.Tag p.i.)	bessere Wirkung	++++	gute Wirkung	bessere antimykotische Wirkung
COC(CCc1ccc(Cl)cc1)(Cn1cncn1)C(C)(C)C (centres unmarked) [Beispiel 4]	+++++ (= sehr gute Wirkung = 90 % Ueberlebende am 6.Tag p.i.)	bessere Wirkung	++++	gute Wirkung	bessere antimykotische Wirkung
COC(CCc1ccc(F)cc1)(Cn1cncn1)C(C)(C)C (centres unmarked) [Beispiel 5]	++++ (= gute Wirkung = 80 % Ueberlebende am 6.Tag p.i.)	bessere Wirkung	++++	gute Wirkung	bessere antimykotische Wirkung
